Results reported in US10377770B2 (Novartis AG, priority 2015, dated 2019).
pIC50: −log10 of the molar value.

Target: C-Raf FL (full length CRAF with Y340E and Y341E activating mutations, co-expressed with h14-3-3 zeta) (Homo sapiens (Human), UniProt P04049, Y340E/Y341E)
Assay: In vitro Raf activity determination, AlphaScreen p-MEK readout, c-Raf (C-Raf FL)
Format: biochemical
Conditions: c-Raf approximately 4 nM, ATP 1 μM, pre-incubation 60 minutes, reaction 1 hour
In short: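 Full-length C-Raf (~4 nM) pre-incubated 60 min at room temperature with compound and kinase-dead biotinylated MEK1 (~10 nM) in Tris pH 7.5, 15 mM MgCl2, BSA, DTT. Reaction started with 1 μM ATP and run 1 h at room temperature. Phospho-MEK detected by AlphaScreen with anti-p-MEK antibody.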

Chain of C-Raf FL (full length CRAF with Y340E and Y341E activating mutations, co-expressed with h14-3-3 zeta) (P04049 whole entry Y340E/Y341E): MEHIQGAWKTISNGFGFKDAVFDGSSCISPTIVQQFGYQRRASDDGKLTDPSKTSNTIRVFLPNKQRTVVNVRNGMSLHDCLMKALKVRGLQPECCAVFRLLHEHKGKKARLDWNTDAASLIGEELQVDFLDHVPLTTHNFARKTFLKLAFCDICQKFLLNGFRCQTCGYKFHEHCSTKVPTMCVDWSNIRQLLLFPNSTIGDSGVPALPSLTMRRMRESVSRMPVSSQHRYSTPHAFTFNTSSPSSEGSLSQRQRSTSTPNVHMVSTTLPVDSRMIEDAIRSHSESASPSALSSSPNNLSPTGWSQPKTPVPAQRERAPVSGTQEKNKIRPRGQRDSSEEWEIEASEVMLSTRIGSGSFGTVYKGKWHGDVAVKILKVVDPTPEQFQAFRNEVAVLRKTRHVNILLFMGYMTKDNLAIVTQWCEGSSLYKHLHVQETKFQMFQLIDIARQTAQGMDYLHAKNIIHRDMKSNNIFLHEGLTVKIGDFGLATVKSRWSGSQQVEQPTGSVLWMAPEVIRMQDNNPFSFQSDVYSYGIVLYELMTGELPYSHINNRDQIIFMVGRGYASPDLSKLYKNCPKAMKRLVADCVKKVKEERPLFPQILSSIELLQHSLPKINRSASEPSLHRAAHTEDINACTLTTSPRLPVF
Chain of C-Raf FL (full length CRAF with Y340E and Y341E activating mutations, co-expressed with h14-3-3 zeta) (P63104 whole entry partner): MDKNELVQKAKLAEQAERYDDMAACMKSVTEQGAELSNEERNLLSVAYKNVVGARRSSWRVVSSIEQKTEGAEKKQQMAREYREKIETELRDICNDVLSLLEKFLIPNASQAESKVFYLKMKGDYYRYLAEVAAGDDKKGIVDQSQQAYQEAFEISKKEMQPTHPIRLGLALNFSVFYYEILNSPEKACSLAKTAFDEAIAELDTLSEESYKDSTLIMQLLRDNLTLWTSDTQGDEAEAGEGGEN

In order of falling pIC50:
1. Cc1ccc(NC(=O)c2ccnc(C(C)(F)F)c2)cc1-c1cnc2c(c1)N1CCOC[C@H]1[C@H](CO)C2 [Example 117, 2-(1,1-Difluoroethyl)-N-(3-((4aR,5R)-5-(hydroxymethyl)-1,2,4,4a,5,6-hexahydro-[1,4]oxazino[4,3-a][1,5]naphthyridin-9-yl)-4-methylphenyl)isonicotinamide]  11.33
2. CCC(=O)NC1CC2COCCN2c2cc(-c3cc(NC(=O)c4ccnc(C(F)(F)F)c4)ccc3C)cnc21 (racemic) [Example 172, rac-N-(4-methyl-3-(6-propionamido-1,2,4,4a,5,6-hexahydro-[1,4]oxazino[4,3-a][1,5]naphthyridin-9-yl)phenyl)-2-(trifluoromethyl)isonicotinamide]  10.47
3. Cc1ccc(NC(=O)c2ccnc(C(C)(C)F)c2)cc1-c1ccc2c(c1)N1CCOCC1CC2O (racemic) [Example 17, (rac)-2-(2-fluoropropan-2-yl)-N-(3-(6-hydroxy-1,2,4,4a,5,6-hexahydro-[1,4]oxazino[4,3-a]quinolin-9-yl)-4-methylphenyl)isonicotinamide]  10.34
4. CCN1C(=O)C[C@H]2COCCN2c2cc(-c3cc(NC(=O)c4ccnc(C(C)(F)F)c4)ccc3C)cnc21 [Example 127, (S)-2-(1,1-difluoroethyl)-N-(3-(7-ethyl-6-oxo-1,2,4a,5,6,7-hexahydro-4H-[1,4]oxazino[4,3-d]pyrido[2,3-b][1,4]diazepin-10-yl)-4-methylphenyl)isonicotinamide]  10.32
5. CCN1C(=O)[C@H]2[C@@H]3COC[C@@H]3[C@H]2c2cc(-c3cc(NC(=O)c4cncc(C(F)(F)F)c4)ccc3C)cnc21 [Example 277, N-(3-((6aR, 6bR, 9aR, 9bR)-5-ethyl-6-oxo-5,6,6a,6b,7,9,9a,9b-octahydrofuro[3′,4′: 3,4]cyclobuta[1,2-c][1,8]naphthyridin-2-yl)-4-methylphenyl)-5-(trifluoromethyl) nicotinamide]  10.00
6. Cc1ncc(NC(=O)c2cccc(C(F)(F)F)c2)cc1-c1cnc2c(c1)N1CCOC[C@@H]1[C@H](CO)C2 [Example 493, N-(5-((4aS,5R)-5-(hydroxymethyl)-1,2,4,4a,5,6-hexahydro-[1,4]oxazino[4,3-a][1,5]naphthyridin-9-yl)-6-methylpyridin-3-yl)-3-(trifluorometh-yl)benzamide]  10.00
7. CCN1C(=O)[C@@H]2COCC[C@H]2c2cc(-c3cc(NC(=O)c4cccc(C(F)(F)F)c4F)cnc3C)cnc21 [Example 256, N-(5-((4aS, 10bR)-6-ethyl-5-oxo-2,4,4a,5,6,10b-hexahydro-1H-pyrano[3,4-c][1,8]naphthyridin-9-yl)-6-methylpyridin-3-yl)-2-fluoro-3-(trifluoromethyl) benzamide]  10.00
8. Cc1ncc(NC(=O)c2cccc(C(C)(F)F)c2)cc1-c1ccc2c(c1)N1CCOC[C@@H]1[C@@](F)(CO)C2 [Example 368, 3-(1,1-difluoroethyl)-N-(5-((4aR,5R)-5-fluoro-5-(hydroxymethyl)-1,2,4,4a,5,6-hexahydro-[1,4]oxazino[4,3-a]quinolin-9-yl)-6-methylpyridin-3-yl)benzamide]  10.00
9. CCN1C(=O)[C@@H]2[C@H]3COC[C@H]3[C@@H]2c2cc(-c3cc(NC(=O)c4ccnc(C(F)(F)F)c4F)ccc3C)cnc21 [Example 273, N-(3-((6aS, 6bS, 9aS, 9bS)-5-ethyl-6-oxo-5,6,6a,6b,7,9,9a,9b-octahydrofuro[3′,4′: 3,4]cyclobuta[1,2-c][1,8]naphthyridin-2-yl)-4-methylphenyl)-3-fluoro-2-(trifluoromethyl) isonicotinamide]  9.70
10. Cc1ccc(NC(=O)c2ccnc(C(F)(F)F)c2)cc1-c1ccc2c(c1)N1CCOCC1CC2(C)O (racemic) [Example 22, (rac)-N-(3-(6-hydroxy-6-methyl-1,2,4,4a,5,6-hexahydro-[1,4]oxazino[4,3-a]quinolin-9-yl)-4-methylphenyl)-2-(trifluoromethyl)isonicotinamide]  9.64
11. Cc1ccc(NC(=O)c2ccnc(C(F)(F)F)c2)cc1-c1cnc2c(c1)C1C3COCC3C1C(=O)N2CCO (stereo not shown) [Example 278, N-(3-(5-(2-hydroxyethyl)-6-oxo-5,6,6a,6b,7,9,9a,9b-octahydrofuro[3′,4′: 3,4]cyclobuta[1,2-c][1,8]naphthyridin 2-yl)-4-methylphenyl)-2-(trifluoromethyl) isonicotinamide]  9.52
12. Cc1ccc(NC(=O)c2ccnc(C(C)(F)F)c2)cc1-c1cc(F)c2c(c1)N1CCOC[C@@H]1[C@@](F)(CO)C2 [Example 425, N-(3-((4aR,5R)-5,7-difluoro-5-(hydroxymethyl)-1,2,4,4a,5,6-hexahydro-[1,4]oxazino[4,3-a]quinolin-9-yl)-4-methylphenyl)-2-(1,1-difluoroethyl)isonicotinamide]  9.40
13. Cc1ccc(NC(=O)c2ccnc(C(F)(F)F)c2)cc1-c1cnc2c(c1)N1CCOC[C@H]1C[C@@H]2C [Example 521, N-(4-methyl-3-((4aR,6S)-6-methyl-1,2,4,4a,5,6-hexahydro-[1,4]oxazino[4,3-a][1,5]naph-thyridin-9-yl)phenyl)-2-(trifluoromethyl)iso-nicotinamide]  9.30
14. Cc1ccc(NC(=O)c2ccnc(C(F)(F)F)c2)cc1-c1ccc2c(c1)N1CCOCC[C@H]1C(F)(F)[C@H]2O [Example 528]  9.15
15. Cc1ccc(NC(=O)c2ccnc(C(F)(F)F)c2)cc1-c1cnc2c(c1)N1CCOC[C@@H]1C(F)(F)[C@@H]2O [Example 168, N-(3-((4aR,6R)-5,5-difluoro-6-hydroxy-1,2,4,4a,5,6-hexahydro-[1,4]oxazino[4,3-a][1,5]naphthyridin-9-yl)-4-methylphenyl)-2-(trifluoromethyl)isonicotinamide]  9.11
16. Cc1ccc(NC(=O)c2ccnc(C(C)(F)F)c2)cc1-c1ccc2c(c1)N1CCOCC1C(F)(CO)C2 (single isomer, unassigned) [Example 83, 2-(1,1-difluoroethyl)-N-(3-(5-fluoro-5-(hydroxymethyl)-1,2,4,4a,5,6-hexahydro-[1,4]oxazino[4,3-a]quinolin-9-yl)-4-methylphenyl)isonicotinamide]  9.07
17. Cc1ccc(NC(=O)c2ccnc(C(F)(F)F)c2)cc1-c1cnc2c(c1)C1(C)CCOCCC1C(=O)N2CCO (single isomer, unassigned) [Example 355, N-(3-((5a,11b-trans)-7-(2-hydroxyethyl)-11b-methyl-6-oxo-1,2,4,5,5a,6,7,11b-octahydrooxepino[4,5-c][1,8]naphthyridin-10-yl)-4-methylphenyl)-2-(trifluoromethyl)isonicotinamide]  8.92
18. Cc1ccc(NC(=O)c2cncc(C(F)(F)F)c2)cc1-c1cc2c(cc1F)C[C@@](F)(CO)[C@@H]1COCCN21 [Example 486, N-(3-((4aS,5S)-5,8-difluoro-5-(hydroxymethyl)-1,2,4,4a,5,6-hexahydro-[1,4]oxazino[4,3-a]quinolin-9-yl)-4-methylphenyl)-5-(trifluoromethyl) nicotinamide]  8.80
19. Cc1ccc(NC(=O)c2ccnc(C(C)(C)C)c2)cc1-c1ccc2c(c1)N1CCOC[C@H]1[C@](F)(CF)C2 [Example 474, 2-(tert-butyl)-N-(3-((4aS,5S)-5-fluoro-5-(fluoromethyl)-1,2,4,4a,5,6-hexahydro-[1,4]oxazino[4,3-a]quinolin-9-yl)-4-methylphenyl)iso-nicotinamide]  8.26
